The source of these data is US7816353B2 (Exelixis, Inc., priority 2003, dated 2010).

Molecules are shown by their SMILES.

Common to all, as to assay type: biochemical
One assay addresses T1, p70S6K (Homo sapiens, UniProt P23443, T412E).
T1 construct: human p70S6 kinase domain residues 1-421, containing a T412E mutation; made in house
As to the kind of experiment: p70S6 Kinase Assay (Luciferase-Coupled Chemiluminescent Kinase assay, LCCA). The following applies: human p70S6 kinase domain residues 1-421, T412E; 5 μM ATP; read-out: p70S6K IC50. In outline:
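Luciferase-coupled chemiluminescence measured percent ATP remaining after the 2 h kinase reaction at ambient temperature, with ATP near the kinase's KM. Ten inhibitor concentrations were tested. IC50 was obtained from a Hill-equation fit.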

The next assay concerns the target T2, Akt1 (Homo sapiens, UniProt P31749).
T2 construct: made in house
As to the kind of experiment: Akt1 Kinase Assay (Luciferase-Coupled Chemiluminescent Kinase assay, LCCA). Particulars: human Akt1 kinase domain residues R144-A480, activated with PDK1; 1 μM ATP; read-out: Akt-1 IC50. As to the method:
(§1) Kinase activity and compound inhibition are investigated using one or more of the three assay formats described below. The ATP concentrations for each assay are selected to be close to the Michaelis-Menten constant (KM) for each individual kinase. Dose-response experiments are performed at 10 different inhibitor concentrations in a 384-well plate format. The data are fitted to four-parameter equation (2) below; where Y is the observed signal, X is the inhibitor concentration, Min is the background signal in the absence of enzyme (0% enzyme activity), Max is the signal in the absence of inhibitor (100% enzyme activity), IC50 is the inhibitor concentration at 50% enzyme inhibition and H represents the empirical Hill's slope to measure the cooperativity. Typically H is close to unity. Y=Min+(Max−Min)/(1+(X/IC50)^H) Equation (2) p70S6 Kinase Assay
Biochemical activity of Akt1 kinase was assessed using a Luciferase-Coupled Chemiluminescent Kinase assay (LCCA) format. Kinase activity was measured as the percent ATP remaining following the kinase reaction. Remaining ATP was detected by luciferase-luciferin-coupled chemiluminescence. Specifically, the reaction was initiated by mixing test compounds, 1 μM ATP, 5 μM crosstide peptide and 1.3 nM Akt1 (baculovirus expressed human Akt1 kinase domain residues R144-A480, activated with PDK1) in a 20 uL assay buffer (20 mM Tris-HCL pH 7.5, 10 mM MgCl2, 0.01% Triton X-100, 1 mM DTT, 3 mM MnCl2). The mixture is incubated at ambient temperature for 3 hours after which 20 μL luciferase-luciferin mix is added and the chemiluminescent signal read using a Wallac Victor2 reader. The luciferase-luciferin mix consists of 50 mM HEPES, pH 7.8, 8.5 μg/mL oxalic acid (pH 7.8), 5 (or 50) mM DTT, 0.4% Triton X-100, 0.25 mg/mL coenzyme A, 63 uM AMP, 28 μg/mL luciferin and 40,000 units/mL luciferase.

The next assay deals with T3, PDK1 (Homo sapiens, UniProt O15530).
T3 construct: human PDK1 kinase domain residues M51-T359; made in house
T3 sequence (O15530 51-359): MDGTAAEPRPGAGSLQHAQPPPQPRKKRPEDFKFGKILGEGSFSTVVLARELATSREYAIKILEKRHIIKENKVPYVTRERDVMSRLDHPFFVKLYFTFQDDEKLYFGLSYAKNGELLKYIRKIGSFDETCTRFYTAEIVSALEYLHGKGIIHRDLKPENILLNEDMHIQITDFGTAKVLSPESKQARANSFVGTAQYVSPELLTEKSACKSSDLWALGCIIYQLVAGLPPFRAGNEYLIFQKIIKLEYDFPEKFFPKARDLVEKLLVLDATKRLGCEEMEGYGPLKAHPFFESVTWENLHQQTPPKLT
Briefly: PDK1 Kinase Assay (Luciferase-Coupled Chemiluminescent Kinase assay, LCCA). The following applies: human PDK1 kinase domain residues M51-T359; 0.5 μM ATP; read-out: PDK-1 IC50. As for the experimental part: as §1
Biochemical activity of PDK1 kinase was assessed using a Luciferase-Coupled Chemiluminescent Kinase assay (LCCA) format. Kinase activity was measured as the percent ATP remaining following the kinase reaction. Remaining ATP was detected by luciferase-luciferin-coupled chemiluminescence. Specifically, the reaction was initiated by mixing test compounds, 0.5 μM ATP, 0.6 μM PDKtide peptide and 6 nM PDK1 (baculovirus expressed human PDK1 kinase domain residues M51-T359) in a 20 uL assay buffer (20 mM Hepes pH 7.5, 1 mM CaCl2, 0.03% CHAPS, 2 mM DTT). The mixture is incubated at ambient temperature for 3 hours after which 20 μL luciferase-luciferin mix is added and the chemiluminescent signal read using a Wallac Victor2 reader. The luciferase-luciferin mix consists of 50 mM HEPES, pH 7.8, 8.5 μg/mL oxalic acid (pH 7.8), 5 (or 50) mM DTT, 0.4% Triton X-100, 0.25 mg/mL coenzyme A, 63 uM AMP, 28 μg/mL luciferin and 40,000 units/mL luciferase.

T2 sequence (P31749 144-480): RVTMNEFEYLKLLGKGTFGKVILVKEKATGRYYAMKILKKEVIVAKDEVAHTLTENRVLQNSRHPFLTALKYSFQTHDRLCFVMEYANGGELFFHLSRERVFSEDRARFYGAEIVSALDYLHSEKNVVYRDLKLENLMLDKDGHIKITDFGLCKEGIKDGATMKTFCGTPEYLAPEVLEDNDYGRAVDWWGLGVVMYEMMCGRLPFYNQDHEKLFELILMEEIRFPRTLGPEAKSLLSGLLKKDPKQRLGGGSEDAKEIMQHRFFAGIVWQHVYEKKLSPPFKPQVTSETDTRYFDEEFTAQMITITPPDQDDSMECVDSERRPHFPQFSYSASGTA
T1 sequence (P23443 1-421 T412E): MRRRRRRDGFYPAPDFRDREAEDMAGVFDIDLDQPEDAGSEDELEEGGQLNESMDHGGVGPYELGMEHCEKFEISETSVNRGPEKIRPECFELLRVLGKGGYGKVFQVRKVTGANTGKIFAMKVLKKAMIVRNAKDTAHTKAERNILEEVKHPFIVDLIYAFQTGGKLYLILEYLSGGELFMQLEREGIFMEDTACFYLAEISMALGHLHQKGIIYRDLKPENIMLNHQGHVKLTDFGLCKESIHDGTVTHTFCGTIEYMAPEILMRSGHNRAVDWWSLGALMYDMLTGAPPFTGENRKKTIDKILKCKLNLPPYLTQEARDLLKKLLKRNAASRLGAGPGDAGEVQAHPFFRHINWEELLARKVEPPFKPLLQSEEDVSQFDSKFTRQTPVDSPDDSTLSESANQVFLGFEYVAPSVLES

Consider `CSc1nc(N)nc(N(CC(=O)Nc2cccc(C(F)(F)F)c2)CC2CCOCC2)c1C#N` [Example 101, N^2-[2-amino-5-cyano-6-(methylthio)pyrimidin-4-yl]-N^2-(tetrahydro-2H-pyran-4-ylmethyl)-N-[3-(trifluoromethyl)phenyl]glycinamide], for which the half-inhibitory concentration (IC50) on p70S6K and on Akt1 was more than 2 µM each time.

Take `CSc1nc(N)nc(SCC(=O)Nc2nc(C)cs2)c1C#N` [Example 25, 2-{[2-amino-5-cyano-6-(methylthio)pyrimidin-4-yl]thio}-N-(4-methyl-1,3-thiazol-2-yl)acetamide]: the IC50 on p70S6K was less than 0.05 µM; on Akt1 it was more than 2 µM; on PDK1, more than 2 µM. Turning to `CSc1nc(N)nc(N(C)[C@@H](C)C(=O)Nc2cc(C(=O)NCCCN3CCN(C)CC3)cc(C(F)(F)F)c2)c1C#N` [Example 131, 3-({N-[2-amino-5-cyano-6-(methylthio)pyrimidin-4-yl]-N-methyl-L-alanyl}amino)-N-[3-(4-methylpiperazin-1-yl)propyl]-5-(trifluoromethyl)benzamide], the figures for the IC50 on p70S6K, at Akt1 and on PDK1 were less than 0.05 µM, more than 2 µM and more than 2 µM, respectively. As for `CSc1nc(N)nc(SCC(=O)Nc2nc3ccccc3s2)c1C#N` [Example 23, 2-{[2-amino-5-cyano-6-(methylthio)pyrimidin-4-yl]thio}-N-1,3-benzothiazol-2-ylacetamide], the IC50 on p70S6K was less than 0.05 µM; at Akt1 it was more than 2 µM. `Nc1nc(NCC(=O)Nc2cccc(C(F)(F)F)c2)cc(N2CCOCC2)n1`: the IC50 on p70S6K is less than 0.05 µM; on PDK1, more than 2 µM. Regarding `Nc1nc(Cl)cc(SCC(=O)Nc2cccc(C(F)(F)F)c2)n1`, the IC50 is 0.05 to 0.5 µM at p70S6K and more than 2 µM at Akt1.

As for `CSc1nc(N)nc(N[C@@H](CCCNC(N)=O)C(=O)Nc2cccc(C(F)(F)F)c2)c1C#N` [Example 147, N~5~-(aminocarbonyl)-N~2~-[2-amino-5-cyano-6-(methylthio)pyrimidin-4-yl]-N-[3-(trifluoromethyl)phenyl]-L-omithinamide], the IC50 on p70S6K was 0.5 to 2 µM; on Akt1, more than 2 µM. In the same order, the values of `COC(=O)c1cc(NC(=O)[C@H](C)Nc2nc(N)nc(SC)c2C#N)cc(C(F)(F)F)c1` [Example 112, methyl 3-({N-[2-amino-5-cyano-6-(methylthio)pyrimidin-4-yl]-L-alanyl}amino)-5-(trifluoromethyl)benzoate] are more than 2 µM and more than 2 µM.

With `CCOc1nc(N)nc(N[C@@H](CCCNC(N)=O)C(=O)Nc2cccc(C(F)(F)F)c2)c1C#N` [Example 194], the IC50 on p70S6K and at Akt1 was more than 2 µM in each case. As to `CCOc1nc(N)nc(N[C@@H](C)C(=O)Nc2cc(C(=O)NCCN(C)C)cc(C(F)(F)F)c2)c1C#N` [Example 160, 3-({N-[2-amino-5-cyano-6-(ethyloxy)pyrimidin-4-yl]-L-alanyl}amino)-N-[2-(dimethylamino)ethyl]-5-(trifluoromethyl)benzamide], the IC50 at p70S6K and on Akt1 was more than 2 µM in each case.

Turning to `CCOc1nc(N)nc(N[C@H](CCCCN)C(=O)Nc2cccc(C(F)(F)F)c2)c1C#N` [Example 196, N~2~-[2-amino-5-cyano-6-(ethyloxy)pyrimidin-4-yl]-N-[3-(trifluoromethyl)phenyl]-D-lysinamide], the IC50 on p70S6K and at Akt1 was more than 2 µM throughout. With `CCOc1nc(N)nc(N[C@@H](CCCN)C(=O)Nc2cccc(C(F)(F)F)c2)c1C#N` [Example 148, N~2~-[2-amino-5-cyano-6-(ethyloxy)pyrimidin-4-yl]-N-[3-(trifluoromethyl)phenyl]-L-omithinamide], the IC50 on p70S6K is 0.5 to 2 µM; on Akt1 it was more than 2 µM.

`CSc1ncc(C#N)c(NCC(=O)Nc2cccc(C(F)(F)F)c2)n1` [Example 100, N^2-[5-cyano-2-(methylthio)pyrimidin-4-yl]-N-[3-(trifluoromethyl)phenyl]glycinamide]: the IC50 at p70S6K and on Akt1 was more than 2 µM in each case. In the case of `CSc1nc(N)nc(N[C@H](CCCCN)C(=O)Nc2cccc(C(F)(F)F)c2)c1C#N` [Example 195], the IC50 at p70S6K and at Akt1 was more than 2 µM each time. `Nc1nc(Cl)c(C=O)c(SCC(=O)Nc2cccc(C(F)(F)F)c2)n1` [Example 43, 2-[(2-amino-6-chloro-5-formylpyrimidin-4-yl)thio]-N-[3-(trifluoromethyl)phenyl]acetamide]: the IC50 on p70S6K is 0.05 to 0.5 µM; at Akt1 it was more than 2 µM. In the case of `C[C@H](Nc1nc(N)nc(N)c1C#N)C(=O)Nc1cccc(C(F)(F)F)c1` [Example 89, N^2-(2,6-diamino-5-cyanopyrimidin-4-yl)-N-[3-(trifluoromethyl)phenyl]-L-alaninamide], the IC50 at p70S6K was more than 2 µM. Same read-out and setting: to `CCOc1nc(N)nc(N[C@@H](COC)C(=O)Nc2cccc(C(F)(F)F)c2)c1C#N` [Example 197, N~2~-[2-amino-5-cyano-6-(ethyloxy)pyrimidin-4-yl]-O-methyl-N-[3-(trifluoromethyl)phenyl]-L-serinamide] belongs more than 2 µM; to `CCOc1nc(N)nc(N[C@@H](CCCN2CCOCC2)C(=O)Nc2cccc(C(F)(F)F)c2)c1C#N` [Example 168, N~2~-[2-amino-5-cyano-6-(ethyloxy)pyrimidin-4-yl]-5-morpholin-4-yl-N-[3-(trifluoromethyl)phenyl]-L-norvalinamide], more than 2 µM.

For the compound `CCOc1nc(N)nc(N(C)[C@@H](C)C(=O)Nc2cccc(OC(F)(F)F)c2)c1C#N` [Example 172, N~2~-[2-amino-5-cyano-6-(ethyloxy)pyrimidin-4-yl]-N~2~-methyl-N-{3-[(trifluoromethyl)oxy]phenyl}-L-alaninamide], the IC50 on p70S6K and on Akt1 was more than 2 µM throughout.

In the case of `CC(C)Oc1nc(N)nc(N[C@@H](C)C(=O)Nc2cccc(C(F)(F)F)c2)c1C#N` [Example 122, N^2-{2-amino-5-cyano-6-[(1-methylethyl)oxy]pyrimidin-4-yl}-N-[3-(trifluoromethyl)phenyl]-L-alaninamide], the IC50 at p70S6K is more than 2 µM. On the same count and under the same terms, to `CCOc1nc(N)nc(N[C@@H](CCCNC(=N)N)C(=O)Nc2cccc(C(F)(F)F)c2)c1C#N` [Example 152, N~2~-[2-amino-5-cyano-6-(ethyloxy)pyrimidin-4-yl]-N-[3-(trifluoromethyl)phenyl]-L-argininamide] belongs more than 2 µM; to `CSc1nc(N)nc(N[C@@H](C)C(=O)Nc2cc(C(F)(F)F)ccc2Cl)c1C#N` [Example 80, N^2-[2-amino-5-cyano-6-(methylthio)pyrimidin-4-yl]-N-[2-5-(trifluoromethyl)phenyl]-L-alaninamide], more than 2 µM.

`CSc1nc(N)nc(SCc2nc3ccc(C(F)(F)F)cc3[nH]2)c1C#N` [Example 63, 2-amino-4-(methylthio)-6-({[6-(trifluoromethyl)-1H-benzimidazol-2-yl]methyl}thio)pyrimidine-5-carbonitrile]: the 50% inhibitory concentration (IC50) on p70S6K lay in the range of 0.5 to 2 µM.
